Experimental data taken from ChEMBL document CHEMBL5321270, “Discovery of Pyrazolone Carbothioamide Derivatives as Inhibitors of the Pdr1-KIX Interaction for Combinational Treatment of Azole-Resistant Candidiasis” (J Med Chem, 2023).
Values after ≈ are worked out from the molar mass of the structure shown. Active and inactive are the calls of the source. No cut-off for these calls is given here.

Legend:
Nannizzia gypsea = test: Antifungal activity against Microsporum gypseum assessed as fungal growth inhibition incubated for 48 hrs by microplate reader assay; format: functional
[1] = Half life in ICR mouse at 10 mg/kg,po measured upto 24 hrs by LC-MS/MS analysis; format: ADME, organism-based; conditions: in vivo
Nakaseomyces glabratus [2] = test: Synergistic antifungal activity against fluconazole-resistant Candida glabrata 0161 assessed as inhibition of fungal growth at 2 to 16 ug/ml incubated for 48 hrs in presence of fluconazole by Spot plating assay; format: functional, organism-based; conditions: dose 2-16 µg/ml
Nakaseomyces glabratus [3] = test: Antifungal activity against fluconazole-resistant Candida glabrata 9256 assessed as fungal growth inhibition incubated for 48 hrs by microplate reader assay; format: functional
Nakaseomyces glabratus [4] = test: Synergistic antifungal activity against fluconazole-resistant Candida glabrata 0161 assessed as downregulation of PDR1 gene expression at 4 ug/ml in presence of fluconazole by RT-PCR analysis; format: functional, organism-based; conditions: dose 4.0 µg/ml
[5] = Inhibition of fluorescent probe FITC tagged PDR1-KIX domain (unknown origin) protein-protein interaction assessed as inhibition constant incubated for 2 hrs by fluorescence polarization binding assay
[6] = AUC (0-t) in ICR mouse at 2 mg/kg,iv measured upto 24 hrs by LC-MS/MS analysis; format: ADME, organism-based; set-up: time < 24 hrs, dose 2 mg/kg, route iv; conditions: in vivo
Nakaseomyces glabratus [7] = test: Synergistic antifungal activity against fluconazole-resistant Candida glabrata 0161 assessed as inhibition of fungal biofilm formation at 1 ug/ml incubated for 24 hrs in presence of fluconazole by XXT reduction menadione assay; format: functional
Nakaseomyces glabratus [8] = test: Antifungal activity against fluconazole-resistant Candida glabrata 0161 assessed as inhibition of fungal mature biofilm formation at 0.25 to 64 ug/ml incubated for 24 hrs by XXT reduction menadione assay; format: functional, organism-based; conditions: dose 0.25-64 µg/ml
[9] = AUC (0-t) in ICR mouse at 10 mg/kg,po measured upto 24 hrs by LC-MS/MS analysis; format: ADME, organism-based; set-up: time < 24 hrs, dose 10 mg/kg, route po; conditions: in vivo
Trichophyton rubrum = test: Antifungal activity against Trichophyton rubrum assessed as fungal growth inhibition incubated for 48 hrs by microplate reader assay; format: functional
[10] = AUC (0-infinity) in ICR mouse at 2 mg/kg,iv measured upto 24 hrs by LC-MS/MS analysis; format: ADME, organism-based; set-up: dose 2 mg/kg, time < 24 hrs, route iv; conditions: in vivo
[11] = Cytotoxicity against human HUVEC cells incubated for 48 hrs by CCK-8 assay; format: toxicity, cell-based
Nakaseomyces glabratus [12] = test: Antifungal activity against FLC-resistant Candida glabrata 0161 infected in cyclophosphamide immunosuppressed ICR mouse model assessed as inhibition of fungal growth in kidney at ip administration for 5 days; format: functional, organism-based; conditions: time 5.0 day
Nakaseomyces glabratus [13] = test: Synergistic antifungal activity against fluconazole-resistant Candida glabrata 0161 assessed as fungal growth inhibition incubated for 48 hrs in presence of fluconazole by time-growth curve assay; format: functional, organism-based
[14] = AUC (0-infinity) in ICR mouse at 10 mg/kg,po measured upto 24 hrs by LC-MS/MS analysis; format: ADME, organism-based; set-up: time < 24 hrs, dose 10 mg/kg, route po; conditions: in vivo
Nakaseomyces glabratus [15] = test: Antifungal activity against fluconazole-resistant Candida glabrata 0161 assessed as inhibition of fungal growth at 2 to 16 ug/ml incubated for 48 hrs by Spot plating assay; format: functional, organism-based; conditions: dose 2-16 µg/ml
Nakaseomyces glabratus [16] = test: Synergistic antifungal activity against fluconazole-resistant Candida glabrata 0161 assessed as inhibition of fungal mature biofilm formation at 1 to 64 ug/ml incubated for 24 hrs in presence of fluconazole by XXT reduction menadione assay; format: functional, organism-based; conditions: dose 1-64 µg/ml
Nakaseomyces glabratus [17] = test: Synergistic antifungal activity against fluconazole-resistant Candida glabrata 0161 assessed as inhibition of fungal biofilm formation at 32 ug/ml incubated for 24 hrs in presence of fluconazole by XXT reduction menadione assay; format: functional
[Candida] auris = Antifungal activity against Candida auris 15448 assessed as fungal growth inhibition incubated for 48 hrs by microplate reader assay; format: functional; conditions: Candidozyma auris
Nakaseomyces glabratus [18] = test: Antifungal activity against FLC-resistant Candida glabrata 0161 infected in cyclophosphamide immunosuppressed ICR mouse model assessed as inhibition of fungal growth in kidney at 40 mg/kg,ip administrated for 5 days; format: functional, organism-based; conditions: time 5.0 day
Nakaseomyces glabratus [19] = test: Synergistic antifungal activity against fluconazole-resistant Candida glabrata 0161 assessed as downregulation of CDR2 gene expression at 4 ug/ml in presence of fluconazole by RT-PCR analysis; format: functional, organism-based; conditions: dose 4.0 µg/ml
[20] = Half life in ICR mouse at 2 mg/kg,iv measured upto 24 hrs by LC-MS/MS analysis; format: ADME, organism-based; conditions: in vivo
[21] = Aqueous solubility of compound; format: physicochemical
Nakaseomyces glabratus [22] = test: Antifungal activity against FLC-resistant Candida glabrata 0161 infected in cyclophosphamide immunosuppressed ICR mouse model assessed as inhibition of fungal growth in kidney at 5 mg/kg,ip administrated for 5 days; format: functional, organism-based; conditions: time 5.0 day
Nakaseomyces glabratus [23] = test: Synergistic antifungal activity against fluconazole-resistant Candida glabrata 0161 assessed as downregulation of CDR1 gene expression at 4 ug/ml in presence of fluconazole by RT-PCR analysis; format: functional, organism-based; conditions: dose 4.0 µg/ml
[24] = Volume of distribution at steady state in ICR mouse at 2 mg/kg,iv measured upto 24 hrs by LC-MS/MS analysis; format: ADME, organism-based; conditions: in vivo, read-out: Vdss
Nakaseomyces glabratus [25] = test: Antifungal activity against fluconazole-resistant Candida glabrata 0161 assessed as increase in Nile red accumulation at 50 uM incubated for 30 mins by nile red staining based confocal microscopic analysis; format: functional, organism-based
Nakaseomyces glabratus [26] = test: Antifungal activity against fluconazole-resistant Candida glabrata 0161 assessed as fractional inhibitory concentration incubated for 48 hrs in presence of fluconazole by microplate reader assay; format: functional
[27] = Cmax in ICR mouse at 10 mg/kg,po measured upto 24 hrs by LC-MS/MS analysis; format: ADME, organism-based; set-up: dose 10 mg/kg, time < 24 hrs, route po; conditions: in vivo
Candida albicans = test: Antifungal activity against Candida albicans assessed as fungal growth inhibition incubated for 48 hrs by microplate reader assay; format: functional
Nakaseomyces glabratus [28] = test: Synergistic antifungal activity against FLC-resistant Candida glabrata 0161 infected in cyclophosphamide immunosuppressed ICR mouse model assessed as reduction in kidney fungal infection at 5 mg/kg,ip administrated for 5 days in presence of fluconazole by Hematoxylin and eosin staining based analysis; format: functional, organism-based; conditions: time 5.0 day
Nakaseomyces glabratus [29] = test: Antifungal activity against fluconazole-resistant Candida glabrata 0161 assessed as fungal growth inhibition at 4 ug/ml incubated for 48 hrs by time-growth curve assay; format: functional, organism-based; conditions: dose 4.0 µg/ml
Candida tropicalis = test: Antifungal activity against Candida tropicalis 10186 assessed as fungal growth inhibition incubated for 48 hrs by microplate reader assay; format: functional
Cryptococcus neoformans = test: Antifungal activity against Cryptococcus neoformans H99 assessed as fungal growth inhibition incubated for 48 hrs by microplate reader assay; format: functional
[30] = Tmax in ICR mouse at 10 mg/kg,po measured upto 24 hrs by LC-MS/MS analysis; format: ADME, organism-based; conditions: in vivo
Nakaseomyces glabratus [31] = test: Synergistic antifungal activity against FLC-resistant Candida glabrata 0161 infected in cyclophosphamide immunosuppressed ICR mouse model assessed as inhibition of fungal growth in kidney at 5 mg/kg,ip administrated in presence of fluconazole for 5 days; format: functional, organism-based; conditions: time 5.0 day
[32] = Cmax in ICR mouse at 2 mg/kg,iv measured upto 24 hrs by LC-MS/MS analysis; format: ADME, organism-based; set-up: dose 2 mg/kg, time < 24 hrs, route iv; conditions: in vivo
Nakaseomyces glabratus [33] = test: Synergistic antifungal activity against fluconazole-resistant Candida glabrata 0161 assessed as downregulation of ERG11 gene expression at 4 ug/ml in presence of fluconazole by RT-PCR analysis; format: functional, organism-based; conditions: dose 4.0 µg/ml
[34] = Clearance in ICR mouse at 2 mg/kg,iv measured upto 24 hrs by LC-MS/MS analysis; format: ADME, organism-based; conditions: in vivo

Nc1cc(=O)n(C(=S)Nc2ccc3c(c2)CCC3)[nH]1
MIC (Nannizzia gypsea): 1 µg/mL (≈ 3.64 µM) | half-life [1]: 36 min | Activity (Nakaseomyces glabratus [2]): Active | MIC (Nakaseomyces glabratus [3]): 0.25 µg/mL (≈ 0.911 µM) | Activity (Nakaseomyces glabratus [4]): Active | Ki [5]: 11.7 µM | AUC(0-t) at 24 h [6]: 489 ng·h/mL | inhibition at 1 µg/mL (Nakaseomyces glabratus [7]): 33% | inhibition (Nakaseomyces glabratus [8]): inactive | AUC(0-t) at 24 h [9]: 389 ng·h/mL | MIC (Trichophyton rubrum): 1 µg/mL (≈ 3.64 µM) | AUC(0-inf) [10]: 491 ng·h/mL | IC50 at 48 h [11]: > 83 µM | Activity (Nakaseomyces glabratus [12]): Dose-Dependent Effect | Activity (Nakaseomyces glabratus [13]): Dose-Dependent Effect | AUC(0-inf) [14]: 390 ng·h/mL | Activity (Nakaseomyces glabratus [15]): Active | inhibition (Nakaseomyces glabratus [16]): Active | inhibition at 32 µg/mL (Nakaseomyces glabratus [17]): 73% | MIC ([Candida] auris): 2 µg/mL (≈ 7.29 µM) | Activity (Nakaseomyces glabratus [18]): Active | Activity (Nakaseomyces glabratus [19]): Active | half-life [20]: 51.6 min | solubility [21]: 22.1 µg/mL (≈ 80.4 µM) | Activity (Nakaseomyces glabratus [22]): Active | Activity (Nakaseomyces glabratus [23]): Active | Vd [24]: 1.04 L/kg | Activity (Nakaseomyces glabratus [25]): Active | FIC (Nakaseomyces glabratus [26]): 0.063 µg/mL | Cmax [27]: 875 ng/mL | MIC (Candida albicans): 4 µg/mL (≈ 14.6 µM) | Activity (Nakaseomyces glabratus [28]): Active | Activity (Nakaseomyces glabratus [29]): Active | MIC (Candida tropicalis): 4 µg/mL (≈ 14.6 µM) | MIC (Cryptococcus neoformans): 0.063 µg/mL (≈ 0.23 µM) | Tmax [30]: 15 min | Activity (Nakaseomyces glabratus [31]): Active | Cmax [32]: 1520 ng/mL | Activity (Nakaseomyces glabratus [33]): Active | clearance [34]: 68.6 mL/min/kg
